Experiments:
[1] = test system: MCF7 (breast adenocarcinoma); assay: Antiproliferative activity against MCF7 (XTT colorimetric method); type: cell-based; settings: Homo sapiens, 72 h treatment
Procedure: (§1) The in vitro antiproliferative activity of MDS at 1 µM after 72 h treatments was evaluated by a colorimetric method against the human tumor cell lines HeLa (cervix epithelioid carcinoma) and MCF7 (breast adenocarcinoma). Compounds showing more than 40% inhibition at 1 µM in at least three independent assays were evaluated in a range of concentrations between 0.1 nM and 10 µM for the determination of half-maximal inhibitory concentrations (IC50) (Table 1). Paclitaxel, CA-4, and ABT-751 were used as references.
(§2) MCF7 (human breast carcinoma), SKOV-3 (human ovarian carcinoma), OVCAR-3 (human ovarian carcinoma), OVCAR-8 (human ovarian carcinoma), and HeLa (human cervical carcinoma) cell lines were cultured in Dulbecco’s Modified Eagle’s Medium (DMEM) (Gibco, Thermo Fischer Scientific) containing 10% (v/v) heat-inactivated fetal bovine serum (HIFBS) (Lonza-Cambrex, Karlskoga, Sweden), 2 mM L-glutamine (Lonza-Cambrex, Karlskoga, Sweden), 100 μg/mL streptomycin, and 100 IU/mL penicillin (Lonza-Cambrex) at 37 °C in humidified 95% air and 5% CO2. HT-29 (human colon carcinoma), IGROV-1 (human ovarian carcinoma), and A2780 (human ovarian carcinoma) cell lines were cultured in RPMI 1640 medium (Gibco, Thermo Fischer Scientific) supplemented with 10% HIFBS, 100 μg/mL streptomycin, and 100 IU/mL penicillin at 37 °C in humidified 95% air and 5% CO2 atmosphere. The presence of mycoplasma was routinely checked with MycoAlert kit (Lonza-Cambrex) and only mycoplasma-free cells were used in the experiments. Ovarian tumor cell lines were originally acquired from Dr Atanasio Pandiella from Centro de Investigación del Cáncer (CIC), Salamanca, Spain. HeLa, HT-29 and MCF7 tumor cell lines were provided by Dr Faustino Mollinedo from Centro de Investigaciones Biológicas Margarita Salas, Madrid, Spain.
(§3) MCF7, HeLa, and HT-29 cell proliferation, when treated with the corresponding compounds, were determined using the XTT (sodium 3’-[1(phenylaminocarbonyl)-3,4-tetrazolium]-bis(4-methoxy-6-nitro)-benzenesulfonic acid hydrate) cell proliferation kit (Roche Molecular Biochemicals, Mannheim, Germany). A freshly prepared mixture of XTT labeling reagent with 0.02% (v/v) PMS (N-methyl-dibenzopyrazine methyl sulfate) electron coupling reagent was added to cells (50 µL/well in 96-well plates, total volume of 160 µL/well). Cells were incubated under standard culture conditions for 4 h (MCF7 and HeLa) or 6 h (HT-29). The absorbance of the formazan product generated was measured at 450 nm using a multi-well plate reader. SKOV-3, OVCAR-3, OVCAR-8, IGROV-1, A-2780 cell proliferation, when treated with the corresponding compound, were determined using MTT (3-(4,5-dimethylthiazol-2-yl)-2,5-diphenyl-2H-tetrazolium bromide) (Sigma-Aldrich, St. Louis, MO, USA). MTT in Phosphate Buffer Saline (PBS) (5 mg/ml) was added to cells (110 µL/well in 24-well plates, total volume of 1110 µL/well). After 1 hour of incubation, the medium was aspirated, and formazan violet crystals were dissolved in dimethyl sulfoxide (DMSO) (500 µL/well). Absorbance was measured at 570 nm in a plate reader (Ultra Evolution, Tecan, Männedorf, Suiza). To determine cell viability, cells in exponential growth phase were seeded (100 µL/well in 96-well plates and 1000 µL/well in 24-well plates) with appropriate cell line concentration (1.5·10^4 cells/mL for MCF7 and HeLa, 3·10^4 cells/mL for HT-29, and 1·10^4 cells/mL for SKOV-3, OVCAR-3, OVCAR-8, IGROV-1, and A-2780) in complete RPMI 1640 or DMEM medium at 37°C and 5% CO2 atmosphere. After 24 h incubation, to allow cells to attach to the plates, all compounds were added at 1 µM concentration and the effect on the proliferation was evaluated 72 h post-treatment. Compounds showing antiproliferative effects at tested concentration were selected for IC50 calculation (50% inhibitory concentration with respect to the untreated controls) from 10^−5 to 10^−10 M concentration. Non-linear curves fitting the experimental data were carried out for each compound. […]

[2] = test system: tubulin (microtubular protein isolated from calf brain); assay: Tubulin Polymerization Inhibition (TPI) assay, turbidity; type: biochemical; settings: 1.5 mg/mL microtubular protein; for TPI % 10 µM: compound at 10 µM
Procedure: The effect of all the synthesized compounds on the in vitro tubulin polymerization was evaluated at 10 µM. All the compounds that inhibited polymerization more than 30% were also assayed at 20 µM. IC50 values were calculated for those compounds inhibiting tubulin polymerization by at least 50% at 20 µM (Table 1 and Supplemental Figure S2).
Microtubular protein was isolated from calf brain according to the modified Shelanski method by two cycles of temperature-dependent assembly/disassembly and stored at −80 °C. Before each use, protein concentration was determined by the Bradford method taking BSA as standard.
Tubulin polymerization was monitored using a Helios α spectrophotometer by measuring the increase in turbidity at 450 nm, caused by a shift from 4 °C to 37 °C, which allows the in vitro microtubular protein to depolymerize and polymerize, respectively. The assay was carried out in quartz cuvettes containing 1.5 mg/mL microtubular protein and the ligand (except for control cuvette with only DMSO at the same concentration) in a mixture of 0.1 M MES buffer, 1 mM EGTA, 1 mM MgCl2, 1 mM β-ME, and 1.5 mM GTP at pH 6.7 (final volume 500 µL). Cuvettes were preincubated at 20 °C for 30 min, to allow ligand binding to tubulin, and subsequently cooled on ice for 10 min. Then, the experiment starts at 4 °C to establish the initial baseline. The assembly process was initiated by a temperature shift to 37 °C and the turbidity produced by tubulin polymerization can be measured by an absorbance increase. After reaching a stable plateau, the temperature was switched back to 4 °C to return to the initial absorption values (to confirm the reversible nature of the monitored process and to determine whether or not the microtubular tubular protein has stabilized). The difference in amplitude between the stable plateau and the initial baseline of the curves was taken as the degree of tubulin polymerization for each experiment. Comparison with control curves under identical conditions but without ligands yielded TPI as a percentage value. All compounds were tested at 10 µM concentration. Compounds that inhibited tubulin polymerization by at least 30% at 10 µM were tested at 20 µM. IC50 values were calculated for compounds that inhibit tubulin polymerization by more than 50% at 20 µM. Compounds were dissolved in DMSO, and the final solvent concentration never exceeded 4% (v/v), which has been reported not to interfere with the assembly process. All the measurements were carried out in at least two independent experiments using microtubular protein from different preparations.

[3] = test system: HeLa (cervix epithelioid carcinoma); assay: Antiproliferative activity against HeLa (XTT colorimetric method); type: cell-based; settings: Homo sapiens, 72 h treatment
Procedure: as §1, §2, §3

Row | Compound | IC50 [1] | IC50 [2] | TPI % 10 µM [2] | IC50 [3]
1 | COc1ccc(/C=C\c2cc(OC)c(OC)c(OC)c2)cc1O [Combretastatin A-4, reference compound] | 0.001 µM | […] | […] | 0.002 µM
2 | COc1ccc(S(=O)(=O)Nc2cc(OC)c(OC)c(OC)c2)cc1 [Compound 1a] | 0.375 µM | > 20 µM | 0% | 0.24 µM
3 | COc1ccc(S(=O)(=O)N(c2cc(OC)c(OC)c(OC)c2)S(=O)(=O)c2ccc(OC)cc2)cc1 [Compound 1b] | > 1 µM | > 20 µM | 0% | > 1 µM
4 | COc1ccc(S(=O)(=O)N(C)c2cc(OC)c(OC)c(OC)c2)cc1 [Compound 2a] | 0.127 µM | > 20 µM | 35% | 0.071 µM
5 | CCN(c1cc(OC)c(OC)c(OC)c1)S(=O)(=O)c1ccc(OC)cc1 [Compound 3] | 0.087 µM | > 20 µM | 25% | 0.099 µM
6 | COc1ccc(S(=O)(=O)N(CCBr)c2cc(OC)c(OC)c(OC)c2)cc1 [Compound 4] | 0.34 µM | > 20 µM | 30% | 0.094 µM
7 | COc1ccc(S(=O)(=O)N(C(C)=O)c2cc(OC)c(OC)c(OC)c2)cc1 [Compound 5] | 0.27 µM | > 20 µM | 0% | 0.287 µM
8 | COc1ccc(S(=O)(=O)N(CC#N)c2cc(OC)c(OC)c(OC)c2)cc1 [Compound 6] | 0.275 µM | > 20 µM | 0% | 0.143 µM
9 | CCOC(=O)CN(c1cc(OC)c(OC)c(OC)c1)S(=O)(=O)c1ccc(OC)cc1 [Compound 7] | 0.335 µM | > 20 µM | 21% | 0.217 µM
10 | COc1ccc(S(=O)(=O)N(CC(=O)O)c2cc(OC)c(OC)c(OC)c2)cc1 [Compound 8] | > 1 µM | > 20 µM | 0% | > 1 µM
11 | COc1ccc(S(=O)(=O)N(Cc2ccccc2)c2cc(OC)c(OC)c(OC)c2)cc1 [Compound 9] | 0.83 µM | > 20 µM | 21% | 0.75 µM
12 | COc1ccc(S(=O)(=O)N(C(=O)OCc2ccccc2)c2cc(OC)c(OC)c(OC)c2)cc1 [Compound 10] | > 1 µM | > 20 µM | 11% | > 1 µM
13 | COc1ccc(S(=O)(=O)Nc2cc(OC)c(OC)c(OC)c2[N+](=O)[O-])cc1 [Compound 11] | > 1 µM | > 20 µM | 10% | > 1 µM
14 | COc1ccc(S(=O)(=O)Nc2cc(OC)c(OC)c(OC)c2N)cc1 [Compound 12] | > 1 µM | > 20 µM | 0% | > 1 µM
15 | COc1ccc(S(=O)(=O)N(C)c2cc(OC)c(OC)c(OC)c2N)cc1 [Compound 13] | > 1 µM | > 20 µM | 0% | > 1 µM
16 | COc1ccc(S(=O)(=O)Nc2cc(OC)c(OC)c(OC)c2NCN(c2cc(OC)c(OC)c(OC)c2N)S(=O)(=O)c2ccc(OC)cc2)cc1 [Compound 14] | > 1 µM | > 20 µM | 0% | > 1 µM
17 | COc1ccc(S(=O)(=O)Nc2cc(OC)c(OC)c(OC)c2NC(C)=O)cc1 [Compound 15] | > 1 µM | > 20 µM | 0% | > 1 µM
18 | COc1ccc(S(=O)(=O)N(C)c2cc(OC)c(OC)c(OC)c2NC(C)=O)cc1 [Compound 16] | > 1 µM | > 20 µM | 0% | > 1 µM
19 | COc1ccc(S(=O)(=O)Nc2cc(OC)c(OC)c(OC)c2NC=O)cc1 [Compound 17] | > 1 µM | > 20 µM | 4% | > 1 µM
20 | COc1ccc(S(=O)(=O)Nc2cc(OC)c(OC)c(OC)c2N(C)C)cc1 [Compound 18] | > 1 µM | > 20 µM | 0% | > 1 µM
21 | COc1ccc(S(=O)(=O)N(C)c2cc(OC)c(OC)c(OC)c2N(C)C)cc1 [Compound 19] | > 1 µM | > 20 µM | 0% | > 1 µM
22 | COc1ccc(S(=O)(=O)Nc2cc(OC)c(OC)c(OC)c2Br)cc1 [Compound 20] | > 1 µM | > 20 µM | 0% | > 1 µM
23 | COc1ccc(S(=O)(=O)Nc2cc(OC)c(OC)c(OC)c2NC(=O)CNC(=O)OC(C)(C)C)cc1 [Compound 21] | > 1 µM | > 20 µM | 0% | > 1 µM
24 | COc1ccc(S(=O)(=O)n2nnc3c(OC)c(OC)c(OC)cc32)cc1 [Compound 23] | > 1 µM | > 20 µM | 0% | > 1 µM
25 | COc1ccc(S(=O)(=O)n2cnc3c(OC)c(OC)c(OC)cc32)cc1 [Compound 24] | > 1 µM | > 20 µM | 0% | > 1 µM
26 | COc1cc(NS(=O)(=O)c2ccc([N+](=O)[O-])cc2)cc(OC)c1OC [Compound 25] | > 1 µM | > 20 µM | 0% | > 1 µM
27 | COc1cc(NS(=O)(=O)c2ccc(N)cc2)cc(OC)c1OC [Compound 26] | > 1 µM | > 20 µM | 0% | > 1 µM
28 | COc1cc(N(C)S(=O)(=O)c2ccc(N)cc2)cc(OC)c1OC [Compound 27] | > 1 µM | > 20 µM | 0% | > 1 µM

Reference: publication PMC7918738, “Microtubule Destabilizing Sulfonamides as an Alternative to Taxane-Based Chemotherapy” (International Journal of Molecular Sciences, 2021)
